Patent publication US20240417374A1, “SMALL MOLECULE ANTAGONIST TO PACAP RECEPTOR AND USES THEREOF” (The University of Vermont and State Agricultural College, priority 2021, published 2024)
Several values for one entry are separate records, joined by “and”; a condition that tells them apart may be missing. Equal values may be shown once.

Assays:
[1] = target: T1, PAC1 receptor (Homo sapiens, UniProt P41586); set-up: expressed in transfected cells; settings: earlier work, WO/2020/168068; cited from earlier work
T1 sequence (P41586 21-468): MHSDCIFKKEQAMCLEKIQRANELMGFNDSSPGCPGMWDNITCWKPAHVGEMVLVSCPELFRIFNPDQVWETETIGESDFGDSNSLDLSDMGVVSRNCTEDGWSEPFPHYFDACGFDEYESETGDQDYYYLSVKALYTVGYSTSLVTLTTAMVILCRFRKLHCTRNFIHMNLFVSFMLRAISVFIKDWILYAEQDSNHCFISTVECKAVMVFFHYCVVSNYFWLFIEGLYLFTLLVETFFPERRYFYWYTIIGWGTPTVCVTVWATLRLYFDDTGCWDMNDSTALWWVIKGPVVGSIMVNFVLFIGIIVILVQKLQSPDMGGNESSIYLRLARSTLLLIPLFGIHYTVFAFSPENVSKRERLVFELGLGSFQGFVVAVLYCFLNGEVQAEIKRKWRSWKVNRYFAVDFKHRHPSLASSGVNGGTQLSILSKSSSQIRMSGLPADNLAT

[2] = target: T1, PAC1 receptor; set-up: expressed in transfected cells; settings: earlier work, WO/2020/168068; cited from earlier work; remark: listed apart in the source
[3] = target: T1, PAC1 receptor; set-up: expressed in transfected cells; settings: earlier work, WO/2020/168068; cited from earlier work; remark: listed apart in the source
[4] = target: T1, PAC1 receptor; test: Inhibition of 20 nM PACAP-stimulated ERK activation in stable PAC1 receptor HEK cells (Western blot); format: cell-based; set-up: expressed in transfected cells; settings: for efficacy and potency in blocking PACAP/PAC1 receptor-stimulated ERK activation, in words: stable human HEK PAC1 receptor cell line, FIGS. 1 and 2
[5] = test system: PACAP-induced anxiety-related behaviors; settings: earlier work, WO/2020/168068; cited from earlier work
[6] = target: T1, PAC1 receptor; test: PAC1 receptor-stimulated adenylyl cyclase cAMP activation; format: cell-based
[7] = target: T1, PAC1 receptor; test: PACAP-induced calcium flux in HEK PAC1R stable cell lines; format: cell-based; set-up: expressed in transfected cells; settings: 20 nM PACAP, FIG. 3A, read-out: calculated IC50, attenuation of PACAP-induced calcium flux
[8] = test system: rats; test: Elevated plus maze after bilateral BNST infusion, PACAP-induced anxiety-like responses; format: in vivo, rat; settings: FIG. 3B
Description: FIG. 3 depicts that PAC1 receptor antagonist RJB-145 blocks PACAP-induced signaling and anxiety-like behavioral responses. […] 20 μM RJB-145 blocked PACAP-stimulated ERK activation nearly 75%. Data represent mean +/− SEM; n=3−4 wells/group. […] Anxiety ridden rats avoid the open arms of the maze and prefer traveling into the closed arms. […] Data represent mean +/− SEM; n=8-10 animals/group; **, statistically different from vehicle, RJB145 and PACAP+RJB145 at p<0.01.

[9] = 20 nM PACAP, PAC1 receptor HEK cells, FIG. 2, read-out: apparent IC50, inhibition of PACAP-stimulated ERK activation

IC50 [4, 9]	effect on PAC1 receptor-stimulated adenylyl cyclase cAMP activation [6]	IC50 [7] [µM]	IC50 ([4]; 20 nM PACAP, HEK PAC1R stable cell lines, FIG. 3A, read-out: calculated IC50, attenuation of PACAP-induced ERK activation) [µM]	block of PACAP-stimulated ERK activation ([4]; 20 μM compound, FIG. 3A) [%]	blocking PACAP/PAC1 receptor stimulated ERK activation (Western blot) ([4]; 25 μM pretreatment, 20 nM PACAP, FIG. 1)	efficacy and potency in blocking PACAP/PAC1 receptor-stimulated ERK activation, in words [4]	Compound	PAC1 receptor endosomal ERK signaling [1]	combination with GCGR antagonist MK-0893 to inhibit PACAP/PAC1 receptor mediated ERK activation [1]	PAC1 receptor internalization [2]	PACAP-stimulated PAC1 receptor plasma membrane calcium signaling [3]	blocking PACAP-induced anxiety-related behaviors in vivo [5]	behavioral effect on elevated plus maze, compound infused alone ([8]; 20 μM/0.5 μL bilaterally into BNST of rats, 5 min per trial)	antagonism of PACAP-induced anxiety-like responses (open arm time) on elevated plus maze ([8]; PACAP+RJB-145 infused bilaterally into BNST of rats)
5 to 8 µM	–	–	–	–	–	–	O=C(N/N=C/c1cccc2c1ccn2Cc1cc(F)cc(F)c1)c1ccc(O)c(Cl)c1 [JF-214]	blocked	acted synergistically	blocked	blocked	demonstrated efficacy	–	–
~10 µM and 10 µM	without significant effects	8.5	9	~75	demonstrate efficacy	shows efficacy and potency	O=C(Nc1ccc(S(=O)(=O)Nc2cc(F)cc(F)c2)cc1)c1cc2ccccc2[nH]1 [RJB-145]	–	–	–	–	–	no behavioral effects compared to vehicle	completely antagonize the PACAP-induced anxiety-like responses to control vehicle levels
~25 µM	–	–	–	–	–	appeared less potent	O=C(Nc1ccc(S(=O)(=O)Nc2ccccc2)cc1)c1cc2ccccc2[nH]1 [RJB-88]	–	–	–	–	–	–	–
